“And” between values parts separate entries of the source, which are not always exact repeats. Identical values can stand only once.
Test system: NCI-H226 complex tumor spheroids, viability
Assay: Anticancer human tumor NCI-H226 cell line growth inhibition;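 note: spheroids exposed to compound for 7 days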
Settings: for viability, T/C: stronger effect = lower value; active = viability on the fitted dose curve at most 10% of control; inactive = the rest
Text: Multicellular complex tumor spheroid response to DNA repair inhibitors in combination with DNA-damaging drugs
This study explores the anticancer activities of DNA-damaging drugs and inhibitors of DNA damage repair, both as single agents and in combinations. Complex tumor spheroids comprised of malignant cells, endothelial cells and mesenchymal stem cells served as an in vitro model for human solid tumors. This model system incorporates physiologically relevant features and patient-derived or established malignant cell lines with clinically relevant genetic alterations from many tumor types. Twenty-six patient-derived or established malignant cell lines were evaluated representing sarcoma, melanoma, small cell lung cancer (SCLC), non-small cell lung cancer (NSCLC), as well as bladder, ovarian and pancreatic cancers. The concentration ranges selected for each drug and investigational agent were based upon clinically achievable concentrations if the clinical Cmax of the agent was known.
Compounds. The drugs and compounds olaparib (NSC753686), talazoparib (NSC767125), berzosertib (NSC777718), elimusertib (NSC800525), nedisertib (NSC802822), VX-984 (NSC792969), AZD-1390 (NSC803789), temozolomide (NSC362856), topotecan (NSC609699), trabectedin (NSC813783), staurosporine (NSC755774), and gemcitabine (NSC613327) were obtained from the National Cancer Institute (NCI) Developmental Therapeutics Program Chemical Repository. The FDA-approved anticancer drug set is available from the Developmental Therapeutics Program at https://dtp.cancer.gov/organization/dscb/obtaining/available_plates.htm. […] The stock solutions were prepared in dimethyl sulfoxide (DMSO, Sigma-Aldrich, St. Louis, MO, cat. D2650) at 400-fold the tested concentration and stored at -70 degrees C. Prior to their use, the stock solutions were diluted in fresh medium and the final DMSO concentration in the assay was 0.25% (v/v). All drugs and investigational agents were tested over a range starting from a high concentration at or near the clinical Cmax and decreasing in half-log increments. If the clinical Cmax for an agent had not been determined, the highest concentration tested was 10 microM.
Cell Lines. The patient-derived cancer cell (PDC) lines: 156681-154-R-J1-PDC, 283228-195-R-J1-PDC, 287954-098-R-J1-PDC, 292921-168-R-J2-PDC, 349418-098-R-PDC, 425362-245-T-J1-PDC, 556581-035-R-J1-PDC, and BL0293-F563-PDC were received from the NCI Patient-Derived Models Repository (PDMR, https://pdmr.cancer.gov). The established cell lines HS-SY-2 (RRID:CVCL_8719), MPNST, and SYO-1 (RRID:CVCL_7146) were obtained from the Sloan Kettering Institute. The alveolar soft parts sarcoma cell line ASPS-1 (RRID:CVCL_S738) was established at the NCI and grown from internal seed stocks. The following established cell lines were purchased from the American Type Culture Collection (ATCC, Manassas, VA): G-401 (ATCC, cat. CRL-1441, RRID:CVCL_0270), SW982 (ATCC, cat. HTB-93, RRID:CVCL_1734), VA-ES-BJ (ATCC, cat. CRL-2138, RRID:CVCL_1785), NCI-H719 (ATCC, cat. CRL-5837, RRID:CVCL_1582), NCI-H196 (ATCC, cat. CRL-5823, RRID:CVCL_1509), NCI-H841 (ATCC, cat. CRL-5845, RRID:CVCL_1595), NCI-H1618 (ATCC, cat. CRL-5879, RRID:CVCL_1480), NCI-H1876 (ATCC, cat. CRL-5902, RRID:CVCL_1503), DMS 114 (ATCC, cat. CRL-2066; RRID:CVCL_1174), NCI-H211 (ATCC, cat. CRL-5824; RRID:CVCL_1529), and SW 1271 (ATCC, cat. CRL-2177, RRID:CVCL_1716). The small cell lung cancer cell line COR-L88 was purchased from Sigma-Aldrich (cat. 92031917-1VL, RRID:CVCL_1141). The non-small cell lung cancer cell lines NCI-H226 (RRID:CVCL_1544) and NCI-H322M (RRID:CVCL_1557) were established at the NCI and grown from internal seed stocks. Pooled donor human umbilical vein endothelial cells (HUVEC, Lonza, cat. CC-2519) and human mesenchymal stem cells (hMSC, Lonza, cat. PT-2501) were purchased from Lonza (Walkersville, MD).
Cell Culture. All cells were maintained in an incubator at 37 degrees C and 5% CO2 with 95% humidity. […]

Cn1ncnc1[C@H]1c2n[nH]c(=O)c3cc(F)cc(c23)N[C@@H]1c1ccc(F)cc1
> 3 µM: IC50 (curve of compound)
inactive: viability, T/C (compound 0.00949 µM) 96.2% and 89.2% and 90.4% | viability, T/C (compound 0.03 µM) 94.6% and 95.9% and 92.7% | viability, T/C (compound 0.0949 µM) 87.4% and 93.6% and 101% | viability, T/C (compound 0.3 µM) 89.4% and 101% and 88.2% | viability, T/C (compound 0.949 µM) 88.6% and 84.1% and 87% | viability, T/C (compound 3 µM) 94.2% and 99.2% and 107%

Cn1nnc2c(C(N)=O)ncn2c1=O
inactive: viability, T/C (compound 3.16 µM) 112% [middle of 10 runs] | viability, T/C (compound 10 µM) 108% [middle of 10 runs] | viability, T/C (compound 31.6 µM) 110% [middle of 10 runs] | viability, T/C (compound 100 µM) 109% [middle of 10 runs]
> 100 µM: IC50 (compound alone, run of 12/02/2019)

O=C(c1cc(Cc2n[nH]c(=O)c3ccccc23)ccc1F)N1CCN(C(=O)C2CC2)CC1
inactive: viability, T/C (compound 0.0949 µM) 98.6% and 105% and 103% | viability, T/C (compound 0.3 µM) 97.1% and 100% and 96.8% | viability, T/C (compound 0.949 µM) 104% (2×) and 101% | viability, T/C (compound 3 µM) 98.5% and 99.3% and 93.9% | viability, T/C (compound 9.49 µM) 96.9% and 87.4% and 106% | viability, T/C (compound 30 µM) 92.1% and 79% and 86.7%
> 30 µM: IC50 (curve of compound)

[2H]c1nc(C)nc([2H])c1-c1cc(NC[C@@H](C)c2cccc3c(C(=O)NC)ccnc23)ncn1
> 10 µM: IC50 (curve of compound)
inactive: viability, T/C (compound 0.0316 µM) 93.8% and 95.7% and 112% | viability, T/C (compound 0.1 µM) 101% and 95.3% and 97.7% | viability, T/C (compound 0.316 µM) 103% and 106% and 88.5% | viability, T/C (compound 1 µM) 107% and 106% and 93.5% | viability, T/C (compound 3.16 µM) 101% and 99.3% and 88.1% | viability, T/C (compound 10 µM) 111% and 114% and 106%

O=C(c1cc(Cc2n[nH]c(=O)c3ccccc23)ccc1F)N1CCN(C(=O)C2CC2)CC1 + CC[C@@]1(O)C(=O)OCc2c1cc1n(c2=O)Cc2cc3c(CN(C)C)c(O)ccc3nc2-1
> 30 µM: IC50 (curve of first compound, second compound 0.003 µM) | IC50 (curve of first compound, second compound 0.00949 µM) | IC50 (curve of first compound, second compound 0.03 µM) | IC50 (curve of first compound, second compound 0.0949 µM) | IC50 (curve of first compound, second compound 0.3 µM)
inactive: viability, T/C (second compound 0.003 µM, first compound 0.0949 µM) 103% | viability, T/C (second compound 0.003 µM, first compound 0.3 µM) 95.8% | viability, T/C (second compound 0.003 µM, first compound 0.949 µM) 100% | viability, T/C (second compound 0.003 µM, first compound 3 µM) 106% | viability, T/C (second compound 0.003 µM, first compound 9.49 µM) 97.9% | viability, T/C (second compound 0.003 µM, first compound 30 µM) 100% | viability, T/C (second compound 0.00949 µM, first compound 0.0949 µM) 94.7% | viability, T/C (second compound 0.00949 µM, first compound 0.3 µM) 91.2% | viability, T/C (second compound 0.00949 µM, first compound 0.949 µM) 95.9% | viability, T/C (second compound 0.00949 µM, first compound 3 µM) 91% | viability, T/C (second compound 0.00949 µM, first compound 9.49 µM) 85.9% | viability, T/C (second compound 0.00949 µM, first compound 30 µM) 81.1% | viability, T/C (second compound 0.03 µM, first compound 0.0949 µM) 88.9% | viability, T/C (second compound 0.03 µM, first compound 0.3 µM) 90.4% | viability, T/C (second compound 0.03 µM, first compound 0.949 µM) 90.1% | viability, T/C (second compound 0.03 µM, first compound 3 µM) 91.2% | viability, T/C (second compound 0.03 µM, first compound 9.49 µM) 96.5% | viability, T/C (second compound 0.03 µM, first compound 30 µM) 89.9% | viability, T/C (second compound 0.0949 µM, first compound 0.0949 µM) 78.4% | viability, T/C (second compound 0.0949 µM, first compound 0.3 µM) 74.4% | viability, T/C (second compound 0.0949 µM, first compound 0.949 µM) 80.2% | viability, T/C (second compound 0.0949 µM, first compound 3 µM) 79.8% | viability, T/C (second compound 0.0949 µM, first compound 9.49 µM) 74.9% | viability, T/C (second compound 0.0949 µM, first compound 30 µM) 78.8% | viability, T/C (second compound 0.3 µM, first compound 0.0949 µM) 68.9% | viability, T/C (second compound 0.3 µM, first compound 0.3 µM) 68.7% | viability, T/C (second compound 0.3 µM, first compound 0.949 µM) 72.7% | viability, T/C (second compound 0.3 µM, first compound 3 µM) 66.8% | viability, T/C (second compound 0.3 µM, first compound 9.49 µM) 70.6% | viability, T/C (second compound 0.3 µM, first compound 30 µM) 60.7%

From PubChem BioAssay AID1845210 (Molecular Pharmacology Branch, DTP, NCI, 2023)
